Where “and” joins values, the source holds several entries; their conditions need not be identical. Equal values may be shown once. Entries after “also recorded” stand apart in the source; their conditions may differ.
Key:
Format in all cases: in vivo, human
[1] = test system: patients with chronic tension-type headache; assay: Double-blind crossover i.v. L-NMMA vs placebo: headache intensity on VAS and VRS
From the text: Sixteen patients With a diagnosis of chronic tension-type headache according to the criteria of the International Headache Society, (headache Classification Committee 1988) were recruited from the out-patient headache clinic at Glostrup Hospital. There were 12 women and 4 men with a mean age (range) of 38.5 (23-52) years. Five patients with coexisting infrequent migraine (£ one day/month) were accepted. All patients completed a diagnostic headache diary during a 4-week run-in period (Russell et al. 1992). At screening, a full physical and neurological examination, including 12-lead ECG were carried out. Blood samples for routine haematological and biochemical testing, and urine sample for urine analysis were taken. The patients were not allowed to take analgesics 12 hours prior to the treatment. Exclusion criteria were: daily medication (including prophylactic headache therapy but not oral contraceptives); pregnant or breast feeding women; abuse of analgesics (corresponding to>2 gm of aspirin/day) or alcohol, serious somatic or psychiatric diseases including depression (Hamilton Depression Score ^317 (Hamilton 1960)); ischemic heart disease; a supine diastolic blood pressure >90 mmHg or heart rate <50 beats per minute at study entry. All patients gave written informed consent to participate in the study, which was approved by The local ethics committee and conducted in accordance with the Declaration of Helsinki.
(§1) Randomization (Med.Stat) and drug preparation were performed by staff not involved in the study. The medication was given over 15 minutes into an antecubital vein (Braun Perfusor). The following parameters were measured at baseline and […] post administration: headache intensity on a 100-mm Visual Analog Scale (VAS) (0-no headache and 100-worst imaginable headache) and on a Verbal Rating Scale (VRS) from 0-10 (0-no headache; 5-moderate headache; 10-worst imaginable headache). Blood pressure and pulse rate were measured 5 minutes prior to administration of treatment and at 5, 10, 15, 20, 25, 30, 60, 90 and 120 minutes post administration. Twelve-lead ECG was monitored continuously. Any adverse events were recorded. Patient with unrelieved headache at 120 minutes post treatment were allowed to take rescue medication. All patients were asked to record details of the following on a diary card at 4, 8, 12, 16, 20 and 24 hours post administration, headache intensity on VRS, any medication taken and adverse events. Between 4-7 days after each treatment, the patients returned to the clinic, the diary cards were collected and any adverse events were noted.
(§2) Primary endpoint was the reduction of pain intensity over time on active treatment compared to placebo. The secondary endpoints were reduction of pain intensity at 30, 60, 90 and 120 minutes post dosing on VAS and VRS compared to pre-treatment pain score within each treatment. Comparison of pain intensity on VAS, blood pressure and pulse rate over time between treatments were performed With ANOVA. Paired-Samples T Test was used to compare pre-treatment pain score on VAS with pain score at 30, 60, 90, 120 minutes post dosing within each treatment. The sum of differences between the pre-treatment VRS score and the VRS score at 30, 60, 90, 120 minutes post dosing was calculated in order to obtained a summary measure of pain score for each treatment (Matthews et al. 1990). These sums of differences for each treatment were compared by Wilcoxon Signed Rank test. Five percent was accepted as level of significance.
The recordings were performed in a standardized manner by the same observer, a trained technician (HA), throughout the study. All parameters were recorded at baseline, 60 and 120 minutes after start of infusion. The trial was designed as a double blind, placebo controlled, crossover study. […] The patients were not allowed to take analgesics 12 hours prior to the examination. […]

[2] = test system: patients with chronic tension-type headache; assay: Total Tenderness Score of pericranial myofascial tissues after L-NMMA; conditions: 6 mg/kg i.v., hydrochloride
From the text: Sixteen patients with a diagnosis of chronic tension-type headache according to the criteria of the International Headache Society (Headache Classification Committee 1988) were included (Table XVII). Five of the patients had coexisting infrequent migraine (<four days/year). The patients were recruited from the out-patient headache clinic at Glostrup University Hospital without respect to presence or absence of myofascial tenderness. All patients underwent a general physical and a neurological examination and completed a diagnostic headache diary during a 4-week run-in period (Russell et al. 1992). […]
The recordings were performed in a standardized manner by the same observer, a trained technician (HA), throughout the study. All parameters were recorded at baseline, 60 and 120 minutes after start of infusion. […] Headache intensity was measured on a 100 mm Visual Analog Scale (VAS) (0-no headache and 100-worst imaginable headache) before, during and after start of infusion.
Total tenderness. […] Tenderness was scored on a 4-point (0-3) scale at each location (local tenderness score) and values from left and right sides were summed to a Total Tenderness Score (TTS) (maximum possible score=48). […]

[3] = test system: patients with chronic tension-type headache; assay: Blood pressure, pulse rate, adverse events and rescue medication after L-NMMA infusion
Method: as §1, §2

CN=C(N)NCCC[C@H](N)C(=O)O.Cl [L-NMMA, L-N^G methyl arginine hydrochloride]
Pain intensity (VAS) over time compared with placebo ([1]; 6 mg/kg i.v., 16 patients, ANOVA, hydrochloride): reduced pain intensity (VAS) over time significantly more than placebo; also recorded: effective in the treatment of patients with chronic tension-type headache; also recorded: significantly reduced | Pain score compared with pre-treatment value within treatment ([1]; 6 mg/kg i.v., post treatment time points, hydrochloride): significantly reduced after 30, 60, 90 and 120 minutes; also recorded: significantly reduced at each time point | Pain score on VAS, 30 minutes ([1]; 30 minutes post dosing, 100-mm VAS, 6 mg/kg i.v., mean (SD)): 38 ± 18 | Pain score on VAS, 60 minutes ([1]; 60 minutes post dosing, 100-mm VAS, 6 mg/kg i.v., mean (SD)): 35 ± 18 | Pain score on VAS, 90 minutes ([1]; 90 minutes post dosing, 100-mm VAS, 6 mg/kg i.v., mean (SD)): 34 ± 21 | Pain score on VAS, 120 minutes ([1]; 120 minutes post dosing, 100-mm VAS, 6 mg/kg i.v., mean (SD)): 33 ± 21 | Pain intensity on VRS compared with placebo ([1]; Verbal Rating Scale 0-10, 6 mg/kg i.v., p=0.02): significantly lower | Duration of antinociceptive effect on headache intensity and of reduction of muscle hardness and tenderness ([1]; after start of infusion, 6 mg/kg i.v.): at least 120 minutes | Pain score on VAS, baseline ([1]; before treatment, 100-mm VAS, 6 mg/kg i.v. over 15 minutes, mean (SD), 16 patients): 49 ± 16 | TTS compared with baseline ([2]; p=0.007 and p=0.008): significantly reduced at 60 and 120 minutes; also recorded: significantly), reduced at 60 and 120 minutes | Tenderness score (summary) compared with placebo ([2]; p=0.11): tended to be reduced; also recorded: tended to be reduced more; also recorded: not significant | Subjective symptoms reported (number of patients) ([3]; 6 mg/kg i.v.): tiredness (2), dryness of the mouth (3), drowsiness (1), exhaustion (1), nausea (1) and a feeling of tingling in arm (1) | MAP and pulse rate over time compared with placebo ([3]; 6 mg/kg i.v., p=0.0001 and p=0.0001): changed significantly over time | Time at which the difference in MAP and pulse rate to placebo disappeared ([3]; after start of infusion): 60 min | Maximum decrease in pulse rate ([3]; occurred 10 minutes post dosing, 6 mg/kg i.v., hydrochloride, 6 mg/kg): 16±2% and 16% | Maximum increase in mean arterial blood pressure (MAP) ([3]; occurred 15 minutes post dosing, 6 mg/kg i.v., hydrochloride, 6 mg/kg): 12±2% and 12% | Patients who reported subjective symptoms in relation to the infusion ([3]; of 16 patients, 6 mg/kg i.v.): Seven | Patients who used simple analgesics as rescue medication ([3]; of 16 patients, 7 on placebo): Three

Source: patent publication US6649605B2, “Treatment of tension-type headaches with NMDA receptor antagonists” (Head Explorer A/S, priority 1996, dated 2003)
